Like-named read-outs stand apart in the source and are kept apart here.

The conditions of the series: rcm bond, Grubbs II.

`CC(=O)c1nn2c3c(cc(C=C(C)C)cc13)CC=CCCCC(=O)NC[C@@]13C[C@@H](C(=O)Nc4nc(C(F)(F)F)ccc4C)N(C(=O)C2)[C@@H]1C3` displayed a ring closure, isolated yield (from C=CCCCC(=O)NC[C@@]12C[C@@H](C(=O)Nc3nc(C(F)(F)F)ccc3C)N(C(=O)Cn3nc(C(C)=O)c4cc(C=C(C)C)cc(CC=C)c43)[C@@H]1C2, 17-membered ring, toluene, 1.67 mM, 80.0 °C, 16.0 h) of 69.4%. On to `CN(C(=O)OCc1ccccc1)[C@H]1CC=CCCCCCCc2ccc(Br)nc2NC1=O`, for which the ring closure, isolated yield (from C=CCCCCCCc1ccc(Br)nc1NC(=O)[C@H](CC=C)N(C)C(=O)OCc1ccccc1, 14-membered ring, toluene, 1.85 mM, 80.0 °C, 16.0 h) was 79.6%.

The molecule `C=Cc1cc(-c2cnc(C)nc2)cc2c(C(C)=O)nn(CC(=O)N3[C@H](C(=O)Nc4nc(C(F)(F)F)ccc4C)C[C@@]4(CNC(=O)C[C@@H](C)CCC=C(C)C)C[C@@H]34)c12` came in with a ring closure, isolated yield (the molecule shown is the open-chain precursor, 17-membered ring, DCE, 1.25 mM, 50.0 °C) of 55.6%. For `CC(=O)c1nn2c3c(cc(-c4cnc(C)nc4)cc13)CC=CCC[C@@H](C)C(=O)NC[C@@]13C[C@@H](C(=O)Nc4ccc(F)c(Br)n4)N(C(=O)C2)[C@@H]1C3`, the ring closure, isolated yield (from C=CCC[C@@H](C)C(=O)NC[C@@]12C[C@@H](C(=O)Nc3ccc(F)c(Br)n3)N(C(=O)Cn3nc(C(C)=O)c4cc(-c5cnc(C)nc5)cc(CC=C)c43)[C@@H]1C2, 17-membered ring, toluene, 1.67 mM, 80.0 °C) is 62.8%.

For `CC(=O)c1nn2c3c(cc(C)cc13)CC=CCCCC(=O)NC[C@@]13C[C@@H](C(=O)Nc4nc(C(F)(F)F)ccc4C)N(C(=O)C2)[C@@H]1C3`, the ring closure, isolated yield runs as follows: (from C=CCCCC(=O)NC[C@@]12C[C@@H](C(=O)Nc3nc(C(F)(F)F)ccc3C)N(C(=O)Cn3nc(C(C)=O)c4cc(C)cc(CC=C)c43)[C@@H]1C2, 17-membered ring, toluene, 1.77 mM, 80.0 °C, 16.0 h) 86.7%; (from C=CCCCC(=O)NC[C@@]12C[C@@H](C(=O)Nc3nc(C(F)(F)F)ccc3C)N(C(=O)Cn3nc(C(C)=O)c4cc(C)cc(CC=C)c43)[C@@H]1C2, 17-membered ring, toluene, 1.88 mM, 80.0 °C, 12.0 h) 62.6%. As for `CC(=O)c1nn2c3c(cc(OCC(C)C)cc13)CC=CCCCC(=O)NC[C@@]13C[C@@H](C(=O)Nc4nc(C(F)(F)F)ccc4C)N(C(=O)C2)[C@@H]1C3`, the ring closure, isolated yield (from C=CCCCC(=O)NC[C@@]12C[C@@H](C(=O)Nc3nc(C(F)(F)F)ccc3C)N(C(=O)Cn3nc(C(C)=O)c4cc(OCC(C)C)cc(CC=C)c43)[C@@H]1C2, 17-membered ring, toluene, 1.71 mM, 80.0 °C, 16.0 h) came to 92%. The molecule `CC(=O)c1nn2c3c(cc(-c4cnc(C)nc4)cc13)N(C(=O)OCc1ccccc1)CC=CCCC(=O)NCC13CC(C(=O)Nc4nc(C(F)(F)F)ccc4C)N(C(=O)C2)C1C3` (stereo not shown) yielded a ring closure, isolated yield (from C=CCCC(=O)NCC12CC(C(=O)Nc3nc(C(F)(F)F)ccc3C)N(C(=O)Cn3nc(C(C)=O)c4cc(-c5cnc(C)nc5)cc(N(CC=C)C(=O)OCc5ccccc5)c43)C1C2, 17-membered ring, toluene, 1.42 mM, 80.0 °C) of 57.2%. The molecule `CC(=O)c1nn2c3c(cc(-c4cnc(C)nc4)cc13)CC=CCC(C)(C)CC(=O)NC[C@@]13C[C@@H](C(=O)Nc4nc(C(F)(F)F)ccc4C)N(C(=O)C2)[C@@H]1C3` showed a ring closure, isolated yield (from C=CCc1cc(-c2cnc(C)nc2)cc2c(C(C)=O)nn(CC(=O)N3[C@H](C(=O)Nc4nc(C(F)(F)F)ccc4C)C[C@@]4(CNC(=O)CC(C)(C)CC=C)C[C@@H]34)c12, 17-membered ring, toluene, 1.2 mM, 80.0 °C) of 67.4%. Consider `CC(=O)c1nn2c3c(cc(-c4cnc(C)nc4)cc13)CCCCCCC=CCCN([C@@H](C)C(=O)Nc1nc(Br)ccc1C)C(=O)C2`, for which, under “from C=CCCCCCCc1cc(-c2cnc(C)nc2)cc2c(C(C)=O)nn(CC(=O)N(CCC=C)[C@@H](C)C(=O)Nc3nc(Br)ccc3C)c12, 16-membered ring, toluene, 1.33 mM, 80.0 °C, 16.0 h”, the ring closure, isolated yield is 88.9%. Molecule `CC(=O)c1nn2c3c(cc(-c4cnc5cc(C)nn5c4)cc13)CC=CCC[C@@H](C)C(=O)NC[C@@]13C[C@@H](C(=O)Nc4nc(C(F)(F)F)ccc4C)N(C(=O)C2)[C@@H]1C3` gave a ring closure, isolated yield (from C=CCC[C@@H](C)C(=O)NC[C@@]12C[C@@H](C(=O)Nc3nc(C(F)(F)F)ccc3C)N(C(=O)Cn3nc(C(C)=O)c4cc(-c5cnc6cc(C)nn6c5)cc(CC=C)c43)[C@@H]1C2, 17-membered ring, toluene, 1.64 mM, 80.0 °C) of 66.7%. `CC(=O)c1nn2c3c(cc(CCC(C)C)cc13)CC=CCCCC(=O)NC[C@@]13C[C@@H](C(=O)Nc4nc(C(F)(F)F)ccc4C)N(C(=O)C2)[C@@H]1C3` came in with a ring closure, isolated yield (from C=CCCCC(=O)NC[C@@]12C[C@@H](C(=O)Nc3nc(C(F)(F)F)ccc3C)N(C(=O)Cn3nc(C(C)=O)c4cc(CCC(C)C)cc(CC=C)c43)[C@@H]1C2, 17-membered ring, toluene, 1.38 mM, 80.0 °C, 16.0 h) of 27.7%. Molecule “(1,R,3S,5R)-2-{2-[3-Acetyl-5-methoxy-7-(prop-2-en-1-yl)indazol-1-yl]acetyl}-5-(hex-5-enamidonaethyl)-N-[3-methyl-6-(trifluoromethyl)pyridin-2-yl]-2-azabicyclo[3.1.0]hexane-3-carboxamide” gave a ring closure, isolated yield (the molecule shown is the open-chain precursor, 17-membered ring, toluene, 1.43 mM, 80.0 °C) of 69.1%.

Source of the values: patent publication US11814391B2, “Macrocyclic compounds for the treatment of medical disorders” (Achillion Pharmaceuticals, Inc., priority 2018, dated 2023).
